Read-outs that look alike come from different tables or passages of the source.
How the values were obtained:
Assay type in all cases: cell-based, human
[1] = tested on: AsPC-1 (K-Ras G12D); assay: Potency assay: pERK; details: Homo sapiens
In short: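 Cells plated overnight, then exposed 4 h at 37 °C to 10-point 3-fold dilutions of compound, in duplicate. pERK read by AlphaLISA SureFire Ultra p-ERK1/2 lysate assay or by In-Cell Western (pERK antibody, DRAQ5 DNA normalisation). IC50 from 4-parameter sigmoidal fit of signal vs log concentration.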

[2] = tested on: AsPC-1 (K-Ras G12D); assay: CellTiter-Glo cell viability assay, AsPC-1; details: Homo sapiens, ASPC1, 120 h, read-out: AsPC-1 Cell Viability IC50
In short: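 Steps: compound dispensed into wells holding cells; incubation to day 5; ~30 min room-temperature equilibration; luminescence read; sample signal divided by mean DMSO signal, times 100; four-parameter logistic curve fit.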

[3] = tested on: NCI-H358 (K-Ras G12C); assay: CellTiter-Glo cell viability assay, H358; details: Homo sapiens, NCI-H358, 120 h
Experimental: Note—The following protocol describes a procedure for monitoring cell viability of K-Ras mutant cancer cell lines in response to a compound of the invention. Other RAS isoforms may be employed, though the number of cells to be seeded will vary based on cell line used.
Test compounds (132.5 nL) were directly dispensed into the assay plates containing cells. […] On day 5, assay plates and their contents were equilibrated to room temperature for approximately 30 minutes. […] Luminescence was measured using the PerkinElmer Enspire. Data were normalized by the following: (Sample signal/Avg. DMSO)*100. The data were fit using a four-parameter logistic fit.

[4] = read-out: H358 Cell Viability IC50, K-Ras G12C, 5-day treatment

SMILES: CCn1c(-c2cccnc2[C@H](C)OC)c2c3cc(ccc31)-c1cc(O)cc(c1)C[C@H](NC(=O)[C@H](C(C)C)N(C)C(=O)CN(C)C(=O)[C@@H]1CN1C(C)C)C(=O)N1CCC[C@H](N1)C(=O)OCC(C)(C)C2 (stereo partly drawn) [Example 148]
- EC50 ([1]; ASPC1, read-out: pERK EC50): < 5000 nM
- IC50 [2]: 100 to 1000 nM
- IC50 [3, 4]: < 10 nM

SMILES: CCn1c(-c2cccnc2[C@H](C)OC)c2c3cc(ccc31)-c1cc(O)cc(c1)C[C@H](NC(=O)[C@H](C(C)C)N(C)C(=O)CN(C)C(=O)[C@@H]1CN1)C(=O)N1CCC[C@H](N1)C(=O)OCC(C)(C)C2 [Example 150]
- EC50 ([1]; ASPC1, read-out: pERK EC50): < 5000 nM
- IC50 [2]: 100 to 1000 nM
- IC50 [3, 4]: < 10 nM

SMILES: CCn1c(-c2cccnc2[C@H](C)OC)c2c3cc(ccc31)-c1cc(O)cc(c1)C[C@H](NC(=O)[C@H](C(C)C)N(C)C(=O)CN(C)C(=O)[C@H]1CN1Cc1ccccc1F)C(=O)N1CCC[C@H](N1)C(=O)OCC(C)(C)C2 (stereo partly drawn) [Example 155]
- EC50 ([1]; ASPC1, read-out: pERK EC50): < 5000 nM
- IC50 [2]: 100 to 1000 nM
- IC50 [3, 4]: < 10 nM

SMILES: CCn1c(-c2cccnc2[C@H](C)OC)c2c3cc(ccc31)-c1cc(O)cc(c1)C[C@H](NC(=O)[C@H](C(C)C)N(C)C(=O)CN(C)C(=O)[C@H]1CN1Cc1ccccc1CO)C(=O)N1CCC[C@H](N1)C(=O)OCC(C)(C)C2 (stereo partly drawn) [Example 156]
- EC50 ([1]; ASPC1, read-out: pERK EC50): < 5000 nM
- IC50 [2]: 100 to 1000 nM
- IC50 [3, 4]: < 10 nM

SMILES: CCn1c(-c2cccnc2[C@H](C)OC)c2c3cc(ccc31)-c1cc(O)cc(c1)C[C@H](NC(=O)[C@H](C(C)C)N(C)C(=O)CN(C)C(=O)[C@H]1CN1CCOC)C(=O)N1CCC[C@H](N1)C(=O)OCC(C)(C)C2 (stereo partly drawn) [Example 159]
- EC50 ([1]; ASPC1, read-out: pERK EC50): < 5000 nM
- IC50 [2]: 100 to 1000 nM
- IC50 [3, 4]: < 10 nM

SMILES: CCn1c(-c2cccnc2[C@H](C)OC)c2c3cc(ccc31)-c1cc(O)cc(c1)C[C@H](NC(=O)[C@H](C(C)C)N(C)C(=O)CN(C)C(=O)[C@@H]1CN1CCOC)C(=O)N1CCC[C@H](N1)C(=O)OCC(C)(C)C2 (stereo partly drawn) [Example 160]
- EC50 ([1]; ASPC1, read-out: pERK EC50): < 5000 nM
- IC50 [2]: 100 to 1000 nM
- IC50 [3, 4]: < 10 nM

SMILES: CCn1c(-c2cccnc2[C@H](C)OC)c2c3cc(ccc31)-c1cc(O)cc(c1)C[C@H](NC(=O)[C@H](C(C)C)N(C)C(=O)CN(C)C(=O)[C@H]1CN1CCCOC)C(=O)N1CCC[C@H](N1)C(=O)OCC(C)(C)C2 (stereo partly drawn) [Example 201]
- EC50 ([1]; ASPC1, read-out: pERK EC50): < 5000 nM
- IC50 [2]: 100 to 1000 nM
- IC50 [3, 4]: < 10 nM

SMILES: CCn1c(-c2cc(N3CCN(C)CC3)cnc2[C@H](C)OC)c2c3cc(ccc31)-c1cc(O)cc(c1)C[C@H](NC(=O)[C@H](C1CCCC1)N(C)C(=O)CN(C)C(=O)[C@H]1CN1)C(=O)N1CCC[C@H](N1)C(=O)OCC(C)(C)C2 [Example 209, (2R)—N-(2-(((1S)-1-cyclopentyl-2-(((6^3S,4S)-1^1-ethyl-25-hydroxy-12-(2-((S)-1-methoxyethyl)-5-(4-methylpiperazin-1-yl)pyridin-3-yl)-10,10-dimethyl-5,7-dioxo-6^1,6^2,6^3,6^4,6^5,6^6-hexahydro-1^1H-8-oxa-1 (5,3)-indola-6 (1,3)-pyridazina-2 (1,3)-benzenacycloundecaphane-4-yl)amino)-2-oxoethyl) (methyl)amino)-2-oxoethyl)-N-methylaziridine-2-carboxamide]
- EC50 ([1]; ASPC1, read-out: pERK EC50): < 5000 nM
- IC50 [2]: < 10 nM
- IC50 [3, 4]: < 10 nM

SMILES: CCn1c(-c2cccnc2[C@H](C)OC)c2c3cc(ccc31)-c1cc(O)cc(c1)C[C@H](NC(=O)[C@H](C1CCCC1)N1CC[C@]3(CCN(C(=O)[C@@H]4N[C@@H]4C4CC4)C3)C1=O)C(=O)N1CCC[C@H](N1)C(=O)OCC(C)(C)C2 [Example 214, (2S)-2-cyclopentyl-2-((S)-7-((2R,3R)-3-cyclopropylaziridine-2-carbonyl)-1-oxo-2,7-diazaspiro[4.4]nonan-2-yl)-N-((6^3S,4S)-1^1-ethyl-25-hydroxy-1^2-(2-((S)-1-methoxyethyl)pyridin-3-yl)-10,10-dimethyl-5,7-dioxo-6^1,6^2,6^3,6^4,6^5,6^6-hexahydro-1^1H-8-oxa-1 (5,3)-indola-6 (1,3)-pyridazina-2 (1,3)-benzenacycloundecaphane-4-yl) acetamide]
- EC50 ([1]; ASPC1, AsPC-1 KRAS G12D, read-out: pERK EC50): < 5000 nM
- IC50 ([2]; K-Ras G12D, 5-day treatment): 10 to 100 nM
- IC50 ([3]; K-Ras G12C, 5-day treatment, read-out: H358 Cell Viability IC50): 10 to 100 nM

SMILES: CCn1c(-c2cccnc2[C@H](C)OC)c2c3cc(ccc31)-c1cc(O)cc(c1)C[C@H](NC(=O)[C@H](C(C)C)N(C)C(=O)CN(C)C(=O)[C@@]1(C)CN1)C(=O)N1CCC[C@H](N1)C(=O)OCC(C)(C)C2 [Example 256]
- EC50 ([1]; ASPC1, read-out: pERK EC50): < 5000 nM
- IC50 [2]: 100 to 1000 nM
- IC50 [3, 4]: 10 to 100 nM

SMILES: CCn1c(-c2cccnc2[C@H](C)OC)c2c3cc(ccc31)-c1cc(O)cc(c1)C[C@H](NC(=O)[C@H](C(C)C)N(C)C(=O)CN(C)C(=O)[C@]1(C)CN1)C(=O)N1CCC[C@H](N1)C(=O)OCC(C)(C)C2 [Example 257]
- EC50 ([1]; ASPC1, read-out: pERK EC50): < 5000 nM
- IC50 [2]: 100 to 1000 nM
- IC50 [3, 4]: 10 to 100 nM

SMILES: CCn1c(-c2cccnc2[C@H](C)OC)c2c3cc(ccc31)-c1cc(O)cc(c1)C[C@H](NC(=O)[C@H](C(C)C)N(C)C(=O)CN(C)C(=O)[C@@H]1N[C@@H]1C(F)(F)F)C(=O)N1CCC[C@H](N1)C(=O)OCC(C)(C)C2 [Example 258]
- EC50 ([1]; ASPC1, read-out: pERK EC50): < 5000 nM
- IC50 [2]: 100 to 1000 nM
- IC50 [3, 4]: 10 to 100 nM
